According to patent US4098995A, “Polygalactosido-sucrose Poly(H-)sulfate salts” (American Cyanamid Company, priority 1976, dated 1978):
“And” between values parts separate entries of the source, which are not always exact repeats. Equal values may be shown once. Where a name gives a salt, the structure may show the parent alone.

How the values were obtained:
activated human C1 = activated human C1 (Homo sapiens, UniProt P09871); assay: Test, Code 026 (C1 inhibitor); assay type: biochemical; details: serial two-fold dilution assay, higher well number indicates higher activity
From the text: (§1) An active inhibitor protects C2 from C1 and C4; (ii) Test, Code 035 (C3-C9 inhibitor) - This test determines the ability of the late components of human complement (C3-C9) to lyse EAC 142 in the presence of appropriate dilutions of the test compound. An active inhibitor protects EAC 142 from lysis by human C3-C9; (iii) Test, Code 036 (C-Shunt inhibitor) -- In this test human erythrocytes rendered fragile are lysed in autologous serum via the shunt pathway activated by cobra venom factor in the presence of appropriate dilutions of the test compound. Inhibition of the shunt pathway results in failure of lysis; (iv) Forssman Vasculitis Test -- Here, the well known complement dependent lesion, Forssman vasculitis, is produced in guinea pigs by intradermal injection of rabbit anti-Forssman antiserum. The lesion is measured in terms of diameter, edema and hemorrhage and the extent to which a combined index of these is inhibited by prior intraperitoneal injection of the test compound at 200 mg/kg is then reported, unless otherwise stated; (v) Forssman Shock Test -- Lethal shock is produced in guinea pigs by an i.v. injection of anti-Forssman antiserum and the harmonic mean death time of treated guinea pigs is compared with that of simultaneous controls; (vi) Complement Level Reduction Test -- In this test, the above dosed guinea pigs, or others, are bled for serum and the complement level is determined in undiluted serum by the capillary tube method of U.S. Pat. No. 3,876,376 and compared to undosed control guinea pigs; and (vii) Cap 50 Test -- Here, appropriate amounts of the test compound are added to a pool of guinea pig serum in vitro, after which the undiluted serum capillary tube assay referred to above is run. The concentration of compound inhibiting 50% is reported.
(§2) **Activity in wells, a serial dilution assay. Higher well numer indicates
(§3) higher activity. The serial dilutions are two-fold.

[1] = tested on: late components of human complement (C3-C9); assay: Test, Code 035 (C3-C9 inhibitor), lysis of EAC 142 by late complement components; assay type: cell-based; details: serial two-fold dilution assay; higher well number indicates higher activity
From the text: as §1, §2, §3

shunt pathway = assay: Test, Code 036 (C-Shunt inhibitor), lysis of fragile human erythrocytes via shunt pathway activated by cobra venom factor; assay type: cell-based; details: serial two-fold dilution assay, higher well number indicates higher activity
From the text: as §1, §2, §3

whole complement = assay: Complement Level Reduction Test in dosed guinea pigs (serum whole complement, capillary tube assay); assay type: in vivo, guinea pig; details: 200 mg/kg
[2] = literature; cited from earlier work
complement [3] = assay: Complement inhibiting activity, tests disclosed herein
complement [4] = details: literature; cited from earlier work

With `O=S(=O)(O)OC[C@H]1O[C@H](OC[C@H]2O[C@H](O[C@]3(COS(=O)(=O)O)O[C@H](COS(=O)(=O)O)[C@@H](OS(=O)(=O)O)[C@@H]3OS(=O)(=O)O)[C@H](OS(=O)(=O)O)[C@@H](OS(=O)(=O)O)[C@@H]2OS(=O)(=O)O)[C@H](OS(=O)(=O)O)[C@@H](OS(=O)(=O)O)[C@H]1OS(=O)(=O)O` [Raffinose Poly(H-)sulfate Triethylamine Salt] the “In Vitro Activity 026 (activity in wells)” value (activated human C1) was 10 wells and 9 wells, the “In Vitro Activity 035” value [1] was “N” and the “In Vitro Activity 036” value (shunt pathway) was “N”.
With `O=S(=O)(O)OC[C@H]1O[C@H](OC[C@H]2O[C@H](O[C@]3(COS(=O)(=O)O)O[C@H](COS(=O)(=O)O)[C@@H](OS(=O)(=O)O)[C@@H]3OS(=O)(=O)O)[C@H](OS(=O)(=O)O)[C@@H](OS(=O)(=O)O)[C@@H]2OS(=O)(=O)O)[C@H](OS(=O)(=O)O)[C@@H](OS(=O)(=O)O)[C@H]1OS(=O)(=O)O` [Raffinose Poly(H--)sulfate Sodium Salt, Raffinose Poly(H-)sulfate Sodium Salt] the “In Vitro Activity 026 (activity in wells)” value (activated human C1; Sodium Salt) was 9 wells and the “In Vitro Activity 036” value (shunt pathway; Sodium Salt) was 1 wells.
With `O=S(=O)(O)OC[C@H]1O[C@H](OC[C@H]2O[C@H](OC[C@H]3O[C@H](O[C@]4(COS(=O)(=O)O)O[C@H](COS(=O)(=O)O)[C@@H](OS(=O)(=O)O)[C@@H]4OS(=O)(=O)O)[C@H](OS(=O)(=O)O)[C@@H](OS(=O)(=O)O)[C@@H]3OS(=O)(=O)O)[C@H](OS(=O)(=O)O)[C@@H](OS(=O)(=O)O)[C@H]2OS(=O)(=O)O)[C@H](OS(=O)(=O)O)[C@@H](OS(=O)(=O)O)[C@H]1OS(=O)(=O)O` [Stachyose Poly(H--)sulfate Sodium Salt, Stachyose Poly(H-)sulfate Sodium Salt] the “In Vitro Activity 026 (activity in wells)” value (activated human C1; Sodium Salt) was 13 wells and 11 wells, the “In Vivo Activity (Guinea Pig) Percent Inhibition” value (whole complement; intraperitoneal, Time (Hours) 30) was -47% and the “In Vivo Activity (Guinea Pig) Percent Inhibition” value (whole complement; intraperitoneal, Time (Hours) 60) was -56%. For the same compound, the “In Vivo Activity (Guinea Pig) Percent Inhibition” value (whole complement; intraperitoneal, Time (Hours) 120) was -65%, the “In Vivo Activity (Guinea Pig) Percent Inhibition” value (whole complement; intravenous, Time (Hours) 2) was -86% and the “In Vivo Activity (Guinea Pig) Percent Inhibition” value (whole complement; intravenous, Time (Hours) 30) was -93%. The “In Vivo Activity (Guinea Pig) Percent Inhibition” value (whole complement; intravenous, Time (Hours) 120) was -17%, the “In Vitro Activity 035” value [1] was “N” and the “In Vitro Activity 036” value (shunt pathway; Sodium Salt) was 4 wells and 2 wells.
With `O=S(=O)(O)OC[C@H]1O[C@H](OC[C@H]2O[C@H](OC[C@H]3O[C@H](O[C@]4(COS(=O)(=O)O)O[C@H](COS(=O)(=O)O)[C@@H](OS(=O)(=O)O)[C@@H]4OS(=O)(=O)O)[C@H](OS(=O)(=O)O)[C@@H](OS(=O)(=O)O)[C@@H]3OS(=O)(=O)O)[C@H](OS(=O)(=O)O)[C@@H](OS(=O)(=O)O)[C@H]2OS(=O)(=O)O)[C@H](OS(=O)(=O)O)[C@@H](OS(=O)(=O)O)[C@H]1OS(=O)(=O)O` [Stachyose Poly(H--)sulfate Triethylamine Salt] [Stachyose Poly(H-)sulfate Triethylamine Salt] the “In Vitro Activity 026 (activity in wells)” value (activated human C1) was 14 wells, the “In Vitro Activity 035” value [1] was “N” and the “In Vitro Activity 036” value (shunt pathway) was 2 wells.
With `O=S(=O)(O)OC[C@H]1O[C@H](OC[C@H]2O[C@H](OC[C@H]3O[C@H](O[C@]4(COS(=O)(=O)O)O[C@H](COS(=O)(=O)O)[C@@H](OS(=O)(=O)O)[C@@H]4OS(=O)(=O)O)[C@H](OS(=O)(=O)O)[C@@H](OS(=O)(=O)O)[C@@H]3OS(=O)(=O)O)[C@H](OS(=O)(=O)O)[C@@H](OS(=O)(=O)O)[C@H]2OS(=O)(=O)O)[C@H](OS(=O)(=O)O)[C@@H](OS(=O)(=O)O)[C@H]1OS(=O)(=O)O` [Stachyose Poly(H--)sulfate Trimethylamine Salt] [Stachyose Poly(H-)sulfate Trimethylamine Salt] the “In Vitro Activity 026 (activity in wells)” value (activated human C1) was 11 wells and 12 wells and the “In Vitro Activity 035” value [1] was “N”.
For `NCCCCCC(=O)O` [epsilon-aminocaproic acid], the “treatment of hereditary angioneurotic edema” value [2] is listed as “used with success”.
In the case of `NC[C@H]1CC[C@H](C(=O)O)CC1` [tranexamic acid], the “treatment of hereditary angioneurotic edema” value [2] is given as “used with success”.
In the case of Stachyose trisulfate, the complement inhibiting activity (complement [3]) is reported as “found lacking in complement inhibiting activity”.
In the case of heparin, the “complement inhibiting activity (reported)” value (complement [4]) is listed as “reported as having complement inhibiting activity”.
In the case of pentosan polysulfo ester, the “complement inhibiting activity (reported)” value (complement [4]) is given as “reported as having complement inhibiting activity”.
